Peptide text beside a SMILES is read from it. * marks the point of attachment. Cbz = O=C(OCc1ccccc1)*
Key:
Type in all cases: cell-based, mouse
4-1BBL mRNA = experiment: Semiquantitative PCR of LPS-induced 4-1BBL mRNA in macrophages; details: for LPS-induced 4-1BBL mRNA / 4-1BBL expression: pretreated 1 hour with 20 μM sulfasalazine, 10 μM SB203580, 5 μM SP600125 or 10 μM PD98059, then LPS, MG-132 data not shown
Method: (A) Immunoblot of 4-1BBL in lysates from wild-type macrophages and macrophages deficient in TLR4 (TLR4 KO), MyD88 (MyD88 KO) or TRIF (TRIF KO), treated with LPS (time, above lanes). LPS induces quick expression of 4-1BBL in macrophages in a TLR4-, MyD88-, and TRIF-dependent manner. (B) Semiquantitative PCR of 4-1BBL mRNA in wild-type macrophages left without pretreatment (None) or pretreated for 1 hour with inhibitors of NF-κB (20 μM sulfasalazine), p38 (10 μM SB203580), Jnk (5 μM SP600125) or MEK (10 μM PD98059) and then treated with LPS (time, above lanes). […] (C) Real-time RCR analysis of the stability of LPS-induced 4-1BBL mRNA (1 hour of treatment; LPS) or ectopically expressed 4-1BBL mRNA at 18 hour after infection with recombinant adenovirus encoding 4-1BBL (Adv). Actinomycin D was used to inhibit transcription. Values are the percent remaining relative to the value at 0 hour (set at 100%). LPS-induced alterations in mRNA stability were also involved in LPS-induced 4-1BBL expression. (D) Flow cytometry of 4-1BBL expression by wild-type peritoneal macrophages treated with LPS (time, key): right, surface expression; left, total expression in cells made permeable with 0.1% saponin. LPS-induced 4-1BBL is located on the cell surface. (E) Immunofluorescence microscopy of wild-type peritoneal macrophages preincubated for 1 hour with (+) or without (−) brefeldin A (3 μg/mL), then treated with LPS (time, left margin) and immunostained with anti-4-1BBL. Original magnification, ×100. Brefeldin A blocks protein translocation to the cell surface by inhibiting its translocation from the endoplasmic reticulum to the Golgi apparatus. (F) Semiquantitative PCR of 4-1BBL and TNF mRNA in lysates of cells treated as described in E. Brefeldin A neither affected the LPS-induced increase in 4-1BBL mRNA nor influenced LPS-induced TNF mRNA after 1 hour, but did reduce TNF mRNA at 2, 4 and 6 hours. GAPDH (A,B,F): glyceraldehyde phosphate dehydrogenase (loading control). Data are representative of three independent experiments.
Semiquantitative PCR was performed as described by Kim et al., J. Exp. Med. 197:1441-52 (2003). For real-time PCR, 0.5 μg of total RNA were used to prepare cDNA using oligo(dT)12 as a primer. The SYBR green PCR Master Mix kit (Applied Biosystems) was used in the real-time PCR analysis.
To determine whether the newly synthesized 4-1BBL needs to be on the cell surface in order to regulate the expression of TNF, peritoneal macrophages were preincubated with or without brefeldin A (3 μg/mL) for 1 hour and were then treated with LPS for the indicated times. Immunostaining was performed using anti-4-1BBL antibodies. 4-1BBL and TNF mRNA were analyzed by semiquantitative PCR. GAPDH was used as control. Brefeldin A is a specific inhibitor that blocks protein translocation to the cell surface by inhibiting its translocation from the endoplasmic reticulum to the Golgi apparatus Klausner et al., J. Cell Biol. 116:1071-1080 (1992) (FIG. 7E).

wild-type macrophages = experiment: ELISA of TNF production by macrophages infected with adenovirus expressing 4-1BBL; details: inhibitor added 6 h after infection (20 μM sulfasalazine, 10 μM SB203580, 5 μM SP600125, 10 μM PD98059), analyzed 24 hour after infection
Method: FIG. 10A-I indicate that two sequential TLR4 complexes exist. (A) Immunoassay of wild-type macrophages treated with LPS (time, above lanes); total cell lysates (Lysates; top) or lysates immunoprecipitated with anti-TLR4, anti-MyD88 or anti-4-1BBL were analyzed by immunoblot with anti-4-1BBL, anti-TLR4 and/or anti-MyD88. Dashed outline, isotype antibody (negative control for immunoprecipitation); solid outlines, positive control for immunoblot of 4-1BBL or MyD88. In LPS-treated macrophages, the MyD88-TLR4 complex is responsible for the initial cellular responses, and the 4-1BBL-TLR4 complex is involved in sustaining TNF production. […] (C) 4-1BBL interacts with TRAF6, but not TRAF2. (D) Knockdown of TRAF6 impaired LPS, PolyI:C, and IL-1β induced cytokine production, but has no effect on TNF-induced IL-6 production. […]

TNF mRNA = experiment: Semiquantitative PCR of LPS-induced TNF mRNA in peritoneal macrophages; details: preincubated 1 hour with brefeldin A 3 μg/mL
Method: (A) Immunoblot of 4-1BBL in lysates from wild-type macrophages and macrophages deficient in TLR4 (TLR4 KO), MyD88 (MyD88 KO) or TRIF (TRIF KO), treated with LPS (time, above lanes). LPS induces quick expression of 4-1BBL in macrophages in a TLR4-, MyD88-, and TRIF-dependent manner. (B) Semiquantitative PCR of 4-1BBL mRNA in wild-type macrophages left without pretreatment (None) or pretreated for 1 hour with inhibitors of NF-κB (20 μM sulfasalazine), p38 (10 μM SB203580), Jnk (5 μM SP600125) or MEK (10 μM PD98059) and then treated with LPS (time, above lanes). […] (C) Real-time RCR analysis of the stability of LPS-induced 4-1BBL mRNA (1 hour of treatment; LPS) or ectopically expressed 4-1BBL mRNA at 18 hour after infection with recombinant adenovirus encoding 4-1BBL (Adv). Actinomycin D was used to inhibit transcription. Values are the percent remaining relative to the value at 0 hour (set at 100%). LPS-induced alterations in mRNA stability were also involved in LPS-induced 4-1BBL expression. […]
To determine whether the newly synthesized 4-1BBL needs to be on the cell surface in order to regulate the expression of TNF, peritoneal macrophages were preincubated with or without brefeldin A (3 μg/mL) for 1 hour and were then treated with LPS for the indicated times. […] 4-1BBL and TNF mRNA were analyzed by semiquantitative PCR. […]

Row | Compound | LPS-induced 4-1BBL mRNA / 4-1BBL expression (4-1BBL mRNA) | 4-1BBL-mediated TNF production (wild-type macrophages) | LPS-induced increase in 4-1BBL mRNA (4-1BBL mRNA; preincubated 1 hour with brefeldin A 3 μg/mL, then LPS) | LPS-induced TNF mRNA at 2, 4, and 6 hours (TNF mRNA; LPS 2, 4, 6 hours) | LPS-induced TNF mRNA after 1 hour (TNF mRNA; LPS 1 hour)
1 | CC(C)C[C@@H](C=O)NC(=O)[C@H](CC(C)C)NC(=O)[C@H](CC(C)C)NC(=O)OCc1ccccc1 [MG-132] (Cbz-Leu-Leu-Leu-aldehyde) | effectively inhibited | – | – | – | –
2 | C[S+]([O-])c1ccc(-c2nc(-c3ccncc3)c(-c3ccc(F)cc3)[nH]2)cc1 (stereo not drawn) [SB203580] | some inhibitory effects | reduced | – | – | –
3 | COc1cccc(-c2cc(=O)c3ccccc3o2)c1N [PD98059] | some inhibitory effects | reduced | – | – | –
4 | C[C@H]1CCC/C=C/[C@@H]2C[C@H](O)C[C@H]2[C@H](O)/C=C/C(=O)O1 [Brefeldin A] | – | – | did not affect | did reduce | did not influence
5 | O=C(O)c1cc(/N=N/c2ccc(S(=O)(=O)Nc3ccccn3)cc2)ccc1O [sulfasalazine] | effectively inhibited | – | – | – | –
